In US20220304997A1, “REBAMIPIDE FOR USE IN PROPHYLAXIS AND TREATMENT OF CANCER” (SQUARE POWER LTD., priority 2019, published 2022):

Tested on: Male CD-1 mice
Assay: DSS model combined with PhIP treatment (increased intestinal permeability, colitis and colon tumors)
Format: in vivo
Source text: To study the effect of rebamipide on increased intestinal permeability, colonic inflammation and cancer development, a DSS model combined with PhIP treatment was employed. Male CD-1 mice, divided into three groups, designated A to C, were used in the study. […] Subsequently, all animals were given inflammatory insult using 2% dextran sodium sulfate (DSS) in drinking water for 7 days, followed by 2-4 weeks of recovery period, during which mice were given untreated water. This cycle was repeated up to four times to induce increased intestinal permeability leading to severe colitis with loss of body weight and bloody diarrhea. Subsequently, majority of animals developed multiple colon tumors. Treatment with DSS (dextran sulfate sodium) induces increased intestinal permeability in mice by binding to medium-chain-length fatty acids present in the colon leading to development of inflammation and colitis. Besides that, the DSS administration leads to a long-term development of dysplasia and even colon cancer in some of the mice treated. PhIP treatment accelerates this process and further increases the incidence of colonic tumors. Another advantage of including PhIP in the protocol is that it allows reduction of the DSS dose in mice, and decreases the mortality from DSS-associated acute colitis. The carcinogenic process of the DSS/PhIP system has a pathological progression from normal intestinal crypts to the formation of foci harboring aberrant crypts with crypt fission and finally to the emergence of microadenomas. These steps recapitulate the sequence of colorectal cancer formation in humans from increased intestinal permeability and inflammation through dysplasia to carcinoma. Rebamipide treatment started four weeks prior to carcinogen administration and continued throughout the study. Groups A and B received rebamipide 50 mg/kg/day and 350 mg/kg/day, respectively. Rebamipide was applied within the standard daily feed or by gavage if needed. The treatment lasted for 20 weeks. […] [table] The observed parameters were as follows: • Number and size of tumors • Histological evaluation of the tumors • Weight loss • Colitis severity assessment • Gut permeability • Cytokines and related markers (IL-6, IL-10, IL-1b, TNFα, iNOS, IL-23p19, MCP 1, MIP 2, CXCL1) • Cell-cell adhesion proteins (Claudin 1, β catenin) • Expression of target genes

[1] = PhIP/DSS-treated mice, in comparison to untreated animals
[2] = groups A and B, rebamipide 50 mg/kg/day and 350 mg/kg/day, 20 weeks, vs untreated control group C, preliminary results

## O=C(NC(Cc1cc(=O)[nH]c2ccccc12)C(=O)O)c1ccc(Cl)cc1 (stereo not drawn) [rebamipide, 2-[(4-chlorobenzoyl)amino]-3-(2-oxo-1H-quinolin-4-yl)propanoic acid]
[1]
  intestinal inflammation: suppresses intestinal inflammation
  onset of the symptoms and markers corresponding to colon cancer: preventing or at least delaying the onset
  permeability of the gastrointestinal mucosa: decrease in permeability
Groups A and B, rebamipide 50 mg/kg/day and 350 mg/kg/day in feed or by gavage, 20 weeks, vs untreated control group C, preliminary results
  recovery from the DSS treatment: recovered faster
[2]
  incidence of tumors at the end of the study: lower incidence
  size of tumors at the end of the study: lower incidence and size of tumors
